Measurements taken from publication PMC10794144, “A novel antibiotic class targeting the lipopolysaccharide transporter” (Nature, 2024).
Like-named read-outs stand apart in the source and are kept apart here. Marks after values point to notes of the source that are not given here.

Legend:
A. baumannii = test: MIC, broth microdilution in CAMHB supplemented with human serum, read at 100% growth inhibition; assay type: cell-based, Acinetobacter baumannii; settings: for MIC: read-out: MIC
Procedure: MIC determinations were performed using the broth microdilution method and in line with CLSI guidelines M07 and M100 (refs. [37],[38]). Bacterial inocula were prepared by diluting a 0.5 McFarland suspension in CAMHB or lysogeny broth (LB) specifically for A. baylyi isolates. […] MIC values of all of the tested antibiotics were read as the lowest compound concentration inhibiting bacterial growth by naked eye or beyond which the OD600 ceased to decrease.

E. coli LptB2FGC = molecular target: T1, E. coli LptB2FGC (Escherichia coli, UniProt P0ADC6+P0AF98); test: LPS-release assay, proteoliposomes to LptA; assay type: biochemical; settings: E. coli LptB2FGC proteins
T1 construct: made in house; host or cells: E. coli C43(λDE3)
T1 sequence (P0AF98 whole entry): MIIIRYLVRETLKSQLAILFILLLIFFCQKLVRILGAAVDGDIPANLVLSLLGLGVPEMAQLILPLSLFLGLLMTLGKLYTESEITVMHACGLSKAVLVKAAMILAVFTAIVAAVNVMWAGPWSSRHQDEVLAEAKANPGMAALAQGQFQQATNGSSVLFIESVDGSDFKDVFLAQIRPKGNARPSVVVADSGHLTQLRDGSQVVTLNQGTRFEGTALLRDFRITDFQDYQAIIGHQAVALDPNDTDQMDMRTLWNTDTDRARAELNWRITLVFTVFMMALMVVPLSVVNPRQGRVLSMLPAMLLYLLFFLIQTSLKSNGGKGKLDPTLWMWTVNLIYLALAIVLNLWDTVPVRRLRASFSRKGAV
T1 sequence (P0ADC6 whole entry): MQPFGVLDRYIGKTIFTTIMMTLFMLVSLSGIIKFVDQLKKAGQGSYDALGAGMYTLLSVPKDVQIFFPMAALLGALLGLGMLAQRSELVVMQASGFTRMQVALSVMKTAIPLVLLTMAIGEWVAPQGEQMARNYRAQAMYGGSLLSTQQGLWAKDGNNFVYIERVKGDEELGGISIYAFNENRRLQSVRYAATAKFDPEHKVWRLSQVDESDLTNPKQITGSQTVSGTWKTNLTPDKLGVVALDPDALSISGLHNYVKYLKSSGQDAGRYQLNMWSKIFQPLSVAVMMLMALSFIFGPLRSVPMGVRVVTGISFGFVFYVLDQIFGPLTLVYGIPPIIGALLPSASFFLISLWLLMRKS
T1 sequence (P0A9V1 whole entry partner): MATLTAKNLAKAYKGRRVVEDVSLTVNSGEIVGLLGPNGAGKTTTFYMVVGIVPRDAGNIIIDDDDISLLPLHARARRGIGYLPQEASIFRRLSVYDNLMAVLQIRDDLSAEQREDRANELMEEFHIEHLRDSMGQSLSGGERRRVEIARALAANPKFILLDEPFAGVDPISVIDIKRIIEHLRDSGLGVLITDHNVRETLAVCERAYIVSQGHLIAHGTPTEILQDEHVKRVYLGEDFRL
T1 sequence (P0ADV9 whole entry partner): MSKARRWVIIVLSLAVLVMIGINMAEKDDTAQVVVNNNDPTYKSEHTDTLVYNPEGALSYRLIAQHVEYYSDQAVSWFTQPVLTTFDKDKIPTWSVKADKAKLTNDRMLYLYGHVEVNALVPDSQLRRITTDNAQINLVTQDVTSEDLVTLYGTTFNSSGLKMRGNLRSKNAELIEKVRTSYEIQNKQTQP
Procedure: The levels of release of LPS from proteoliposomes to LptA were measured as previously described. Assays used 60% proteoliposomes (by volume) in a solution containing 50 mM Tris-HCl (pH 8.0), 500 mM NaCl, 10% glycerol and 2 µM LptA^I36pBPA. Reaction mixtures were incubated with drug for 10 min at room temperature, as applicable. Reactions were then initiated by the addition of ATP and MgCl2 (final concentrations of 5 mM and 2 mM, respectively) and proceeded at 30 °C. Aliquots (25 µl) were removed from the reaction mixtures and irradiated with ultraviolet light (365 nm) on ice for 10 min using a B-100AP lamp (Thermo Fisher Scientific). After ultraviolet irradiation, 25 µl 2× SDS–PAGE sample loading buffer was added, the samples were boiled for 10 min and proteins were separated using Tris-HCl 4–20% polyacrylamide gradient gels with Tris-glycine running buffer. Immunoblotting was conducted as described above.

CN1C(=O)[C@H](CCCCN)NC(=O)[C@H](CCCN)NCc2cccnc2Sc2cccc(-c3ccc(C(=O)O)cc3)c2CNC(=O)[C@@H]1Cc1c[nH]c2ccccc12 [zosurabalpin]
0.06 µg/mL: MIC (A. baumannii; Acinetobacter baumannii, isolate 1864609, 20% HS) | MIC (A. baumannii; Acinetobacter baumannii, isolate 1865273, 20% HS) | MIC (A. baumannii; Acinetobacter baumannii, isolate 1865494, 20% HS) | MIC (A. baumannii; Acinetobacter baumannii, isolate 1866282, 20% HS) | MIC (A. baumannii; Acinetobacter baumannii, isolate 1887389, 20% HS) | MIC (A. baumannii; Acinetobacter baumannii, isolate 1887397, 20% HS) | MIC (A. baumannii; Acinetobacter baumannii, isolate 1887497, 20% HS) | MIC (A. baumannii; Acinetobacter baumannii, isolate 1887498, 20% HS) | MIC (A. baumannii; Acinetobacter baumannii, isolate 1914733, 20% HS) | MIC (A. baumannii; Acinetobacter baumannii, isolate 1930837, 20% HS)
256: Fold MIC increase (A. baumannii; LptF (K320)dup vs parental) | Fold MIC increase (A. baumannii; LptF I317S vs parental) | Fold MIC increase (A. baumannii; LptF K320E vs parental)
2: Fold MIC increase (A. baumannii; AdeS D128E vs parental)
8 - 16 ^a: Fold MIC increase (A. baumannii; LptF R322G vs parental)
128: Fold MIC increase (A. baumannii; LptF (V314_L315)del vs parental)
32 - 128 ^a: Fold MIC increase (A. baumannii; LptF R322C vs parental)
4 - 32 ^a: Fold MIC increase (A. baumannii; adeS ISAba1 vs parental)
0.5 µg/mL: MIC (A. baumannii; Acinetobacter baumannii, isolate 1729123, 20% HS) | MIC (A. baumannii; Acinetobacter baumannii, isolate 1729351, 20% HS) | MIC (A. baumannii; Acinetobacter baumannii, isolate 1864833, 20% HS) | MIC (A. baumannii; Acinetobacter baumannii, isolate 1865083, 20% HS) | MIC (A. baumannii; Acinetobacter baumannii, isolate 1865084, 20% HS) | MIC (A. baumannii; Acinetobacter baumannii, isolate 1865085, 20% HS) | MIC (A. baumannii; Acinetobacter baumannii, isolate 1865086, 20% HS) | MIC (A. baumannii; Acinetobacter baumannii, isolate 1868315, 20% HS) | MIC (A. baumannii; Acinetobacter baumannii, isolate 1869088, 20% HS) | MIC (A. baumannii; Acinetobacter baumannii, isolate 1870171, 20% HS) | MIC (A. baumannii; Acinetobacter baumannii, isolate 1914727, 20% HS)
0.25 µg/mL: MIC (A. baumannii; Acinetobacter baumannii, isolate 1729352, 20% HS) | MIC (A. baumannii; Acinetobacter baumannii, isolate 1729353, 20% HS) | MIC (A. baumannii; Acinetobacter baumannii, isolate 1729358, 20% HS) | MIC (A. baumannii; Acinetobacter baumannii, isolate 1865057, 20% HS) | MIC (A. baumannii; Acinetobacter baumannii, isolate 1865269, 20% HS) | MIC (A. baumannii; Acinetobacter baumannii, isolate 1865274, 20% HS) | MIC (A. baumannii; Acinetobacter baumannii, isolate 1865714, 20% HS) | MIC (A. baumannii; Acinetobacter baumannii, isolate 1866370, 20% HS) | MIC (A. baumannii; Acinetobacter baumannii, isolate 1866376, 20% HS) | MIC (A. baumannii; Acinetobacter baumannii, isolate 1869089, 20% HS) | MIC (A. baumannii; Acinetobacter baumannii, isolate 1869090, 20% HS) | MIC (A. baumannii; Acinetobacter baumannii, isolate 1869091, 20% HS) | MIC (A. baumannii; Acinetobacter baumannii, isolate 1869093, 20% HS) | MIC (A. baumannii; Acinetobacter baumannii, isolate 1869173, 20% HS) | MIC (A. baumannii; Acinetobacter baumannii, isolate 1870152, 20% HS) | MIC (A. baumannii; Acinetobacter baumannii, isolate 1872001, 20% HS) | MIC (A. baumannii; Acinetobacter baumannii, isolate 1897314, 20% HS) | MIC (A. baumannii; Acinetobacter baumannii, isolate 1897317, 20% HS)
64 - 128 ^a: Fold MIC increase (A. baumannii; LptF (G326_E327)del vs parental) | Fold MIC increase (A. baumannii; LptF I323K vs parental)
4: Fold MIC increase (A. baumannii; AdeS G160C vs parental) | Fold MIC increase (A. baumannii; AdeS L197F vs parental) | Fold MIC increase (A. baumannii; AdeS R108S vs parental) | Fold MIC increase (A. baumannii; AdeS R152K vs parental) | Fold MIC increase (A. baumannii; AdeS T66S vs parental) | Fold MIC increase (A. baumannii; LptF W271R vs parental) | Fold MIC increase (A. baumannii; LpxM K285N vs parental)
>256: Fold MIC increase (A. baumannii; LptF (I319_K320)N vs parental) | Fold MIC increase (A. baumannii; LptF (K320)del vs parental) | Fold MIC increase (A. baumannii; LptF E58K vs parental) | Fold MIC increase (A. baumannii; LptF I317N vs parental)
8: Fold MIC increase (A. baumannii; AdeS G318S vs parental) | Fold MIC increase (A. baumannii; LptF E58G vs parental, CAMHB + 20% HS) | Fold MIC increase (A. baumannii; LptF T121K vs parental) | Fold MIC increase (A. baumannii; LptG G40D vs parental) | Fold MIC increase (A. baumannii; deletion of AGTGTGGAGTA 66nt upstream of adeR vs parental)
0.125 µg/mL: MIC (A. baumannii; Acinetobacter baumannii, isolate 1865386, 20% HS) | MIC (A. baumannii; Acinetobacter baumannii, isolate 1865387, 20% HS) | MIC (A. baumannii; Acinetobacter baumannii, isolate 1866281, 20% HS) | MIC (A. baumannii; Acinetobacter baumannii, isolate 1930840, 20% HS)
32 - 256 ^a: Fold MIC increase (A. baumannii; LptF E249K vs parental)
32 - 64: Fold MIC increase (A. baumannii; LptF I317L vs parental)
64 - 256 ^a: Fold MIC increase (A. baumannii; LptF L62H vs parental)
>4 - 32: Fold MIC increase (A. baumannii; AdeR A91V vs parental)
4 - 256 ^a: Fold MIC increase (A. baumannii; LptF I323R vs parental)
32 - 64 ^a: Fold MIC increase (A. baumannii; LptF R322L vs parental) | Fold MIC increase (A. baumannii; lpxM ISAba1 vs parental)
no effect on LPS extraction: LPS extraction to LptA (E. coli LptB2FGC)
1 to 8 µg/mL: MIC (A. baumannii; Acinetobacter baumannii, mutations in adeRS)
1 µg/mL: MIC (A. baumannii; Acinetobacter baumannii, isolate 1729052, 20% HS) | MIC (A. baumannii; Acinetobacter baumannii, isolate 1729362, 20% HS) | MIC (A. baumannii; Acinetobacter baumannii, isolate 1729379, 20% HS) | MIC (A. baumannii; Acinetobacter baumannii, isolate 1865266, 20% HS) | MIC (A. baumannii; Acinetobacter baumannii, isolate 1869068, 20% HS) | MIC (A. baumannii; Acinetobacter baumannii, isolate 1869085, 20% HS) | MIC (A. baumannii; Acinetobacter baumannii, isolate 1869086, 20% HS) | MIC (A. baumannii; Acinetobacter baumannii, isolate 1869087, 20% HS) | MIC (A. baumannii; Acinetobacter baumannii, isolate 1870131, 20% HS) | MIC (A. baumannii; Acinetobacter baumannii, isolate 1871948, 20% HS) | MIC90 (A. baumannii; Acinetobacter baumannii, 129 clinical isolates, CAMHB + 20% HS, n = 1)
64: Fold MIC increase (A. baumannii; LptF K320N vs parental)
4 µg/mL: MIC (A. baumannii; Acinetobacter baumannii, isolate 1729102, 20% HS) | MIC (A. baumannii; Acinetobacter baumannii, isolate 1869084, 20% HS) | MIC (A. baumannii; Acinetobacter baumannii, isolate 1872360, 20% HS)
16: Fold MIC increase (A. baumannii; LptF K320T vs parental) | Fold MIC increase (A. baumannii; LptF R322S vs parental) | Fold MIC increase (A. baumannii; LptF W271S vs parental)
32: Fold MIC increase (A. baumannii; LptF A318E vs parental) | Fold MIC increase (A. baumannii; LptF I317T vs parental) | Fold MIC increase (A. baumannii; LptF K320Q vs parental) | Fold MIC increase (A. baumannii; LptG L36Q vs parental) | Fold MIC increase (A. baumannii; LpxM IS66 vs parental) | Fold MIC increase (A. baumannii; LpxM L44stop vs parental) | Fold MIC increase (A. baumannii; LpxM W78stop vs parental)
0.03 µg/mL: MIC (A. baumannii; Acinetobacter baumannii, isolate 1866283, 20% HS) | MIC (A. baumannii; Acinetobacter baumannii, isolate 1870044, 20% HS) | MIC (A. baumannii; Acinetobacter baumannii, isolate 1897312, 20% HS)
